Laboratory results as given in ChEMBL document CHEMBL4152309, “N-phenylsulfonyl-3,5-bis(arylidene)-4-piperidone derivatives as activation NF-κB inhibitors in hepatic carcinoma cell lines” (Eur J Med Chem, 2018).
The source made the active and inactive calls. The calls are words filed in the database; no cut-off is given here.

How the values were obtained:
L02 = test: Cytotoxicity against human LO2 cells assessed as reduction in cell viability after 24 hrs by MTT assay; type: cell-based; conditions: L02, 24 h
SMMC-7721 [1] = test: Induction of apoptosis in human SMMC7721 cells assessed as increase in late apoptotic cells after 24 hrs by Annexin-V-FITC/propidium iodide staining based flow cytometry; type: functional, cell-based
SMMC-7721 [2] = test: Cytotoxicity against human SMMC7721 cells assessed as reduction in cell viability after 24 hrs by MTT assay; type: functional, cell-based
RAW264.7 [3] = test: Anti-inflammatory activity in mouse RAW264.7 cells assessed as inhibition of LPS-induced TNFalpha secretion at 10 uM pretreated for 2 hrs followed by LPS stimulation and measured after 22 hrs by ELISA; type: functional, cell-based
QGY-7703 [4] = test: Cytotoxicity against human QGY7703 cells assessed as reduction in cell viability after 24 hrs by MTT assay; type: functional, cell-based
HepG2 [5] = test: Inhibition of TNFalpha-stimulated NFkappaB activation in human HepG2 cells assessed as reduction in IkappaB phosphorylation pretreated for 2 hrs followed by LPS-stimulation and measured after 15 mins by Western blot method; type: cell-based
[6] = Cytotoxicity against human HHL5 cells assessed as reduction in cell viability after 24 hrs by MTT assay; type: cell-based; conditions: HHL-5, 24 h
HepG2 [7] = test: Induction of apoptosis in human HepG2 cells assessed as increase in cleaved caspase 3 expression after 24 hrs by Western blot analysis; type: functional, cell-based
HepG2 [8] = test: Induction of apoptosis in human HepG2 cells assessed as increase in late apoptotic cells after 24 hrs by Annexin-V-FITC/propidium iodide staining based flow cytometry; type: functional, cell-based
[9] = Cytotoxicity against mouse RAW264.7 cells assessed as cell viability at 10 uM after 24 hrs by MTT assay relative to control; type: cell-based; conditions: read-out: Activity
QGY-7703 [10] = test: Induction of apoptosis in human QGY7703 cells assessed as increase in early apoptotic cells after 24 hrs by Annexin-V-FITC/propidium iodide staining based flow cytometry; type: functional, cell-based
RAW264.7 [11] = test: Inhibition of LPS-stimulated NFkappaB activation in mouse RAW264.7 cells assessed as reduction in p65 phosphorylation at 1 to 10 uM pretreated for 2 hrs followed by LPS-stimulation and measured after 15 mins by Western blot method; type: cell-based
HepG2 [12] = test: Induction of apoptosis in human HepG2 cells assessed as decrease in Bcl2 expression after 24 hrs by Western blot analysis; type: functional, cell-based
[13] = target: Transcription factor p65 (Mus musculus) (UniProt Q04207); test: Inhibition of LPS-stimulated NFkappaB p65 nuclear translocation in mouse RAW264.7 cells at 5 uM pretreated for 2 hrs followed by LPS-stimulation and measured after 15 mins by DAPI staining based microscopic analysis; type: cell-based
SMMC-7721 [14] = test: Induction of apoptosis in human SMMC7721 cells assessed as increase in early apoptotic cells after 24 hrs by Annexin-V-FITC/propidium iodide staining based flow cytometry; type: functional, cell-based
[15] = target: Transcription factor p65 (Homo sapiens) (UniProt Q04206); test: Inhibition of TNFalpha-stimulated NFkappaB p65 nuclear translocation in human HepG2 cells at 5 uM pretreated for 2 hrs followed by LPS-stimulation and measured after 15 mins by DAPI staining based microscopic analysis; type: cell-based
HepG2 [16] = test: Inhibition of TNFalpha-stimulated NFkappaB activation in human HepG2 cells assessed as reduction in p65 phosphorylation pretreated for 2 hrs followed by LPS-stimulation and measured after 15 mins by Western blot method; type: cell-based
HepG2 [17] = test: Cytotoxicity against human HepG2 cells assessed as reduction in cell viability after 24 hrs by MTT assay; type: functional, cell-based
HepG2 [18] = test: Induction of apoptosis in human HepG2 cells assessed as increase in early apoptotic cells after 24 hrs by Annexin-V-FITC/propidium iodide staining based flow cytometry; type: functional, cell-based
HepG2 [19] = test: Induction of apoptosis in human HepG2 cells assessed as increase in Bax expression after 24 hrs by Western blot analysis; type: functional, cell-based
RAW264.7 [20] = test: Inhibition of LPS-stimulated NFkappaB activation in mouse RAW264.7 cells assessed as reduction in IkappaB phosphorylation at 1 to 10 uM pretreated for 2 hrs followed by LPS-stimulation and measured after 15 mins by Western blot method; type: cell-based
QGY-7703 [21] = test: Induction of apoptosis in human QGY7703 cells assessed as increase in late apoptotic cells after 24 hrs by Annexin-V-FITC/propidium iodide staining based flow cytometry; type: functional, cell-based
RAW264.7 [22] = test: Anti-inflammatory activity in mouse RAW264.7 cells assessed as inhibition of LPS-induced IL-6 secretion at 10 uM pretreated for 2 hrs followed by LPS stimulation and measured after 22 hrs by ELISA; type: functional, cell-based

Chain of Transcription factor p65 (Mus musculus) (Q04207 whole entry): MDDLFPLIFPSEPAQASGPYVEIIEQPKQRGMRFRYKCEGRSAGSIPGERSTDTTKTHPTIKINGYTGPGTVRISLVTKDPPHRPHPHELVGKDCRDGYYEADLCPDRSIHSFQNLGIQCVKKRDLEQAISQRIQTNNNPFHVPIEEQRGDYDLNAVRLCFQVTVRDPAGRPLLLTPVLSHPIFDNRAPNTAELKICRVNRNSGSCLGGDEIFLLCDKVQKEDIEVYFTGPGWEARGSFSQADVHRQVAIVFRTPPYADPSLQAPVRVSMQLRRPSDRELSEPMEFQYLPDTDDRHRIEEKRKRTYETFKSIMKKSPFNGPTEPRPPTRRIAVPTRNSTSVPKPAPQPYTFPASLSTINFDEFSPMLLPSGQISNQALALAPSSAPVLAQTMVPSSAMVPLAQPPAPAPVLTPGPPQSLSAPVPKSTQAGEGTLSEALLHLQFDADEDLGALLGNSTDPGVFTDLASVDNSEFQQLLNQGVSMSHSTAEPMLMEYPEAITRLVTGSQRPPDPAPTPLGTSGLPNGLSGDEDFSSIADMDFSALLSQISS
Chain of Transcription factor p65 (Homo sapiens) (Q04206 whole entry): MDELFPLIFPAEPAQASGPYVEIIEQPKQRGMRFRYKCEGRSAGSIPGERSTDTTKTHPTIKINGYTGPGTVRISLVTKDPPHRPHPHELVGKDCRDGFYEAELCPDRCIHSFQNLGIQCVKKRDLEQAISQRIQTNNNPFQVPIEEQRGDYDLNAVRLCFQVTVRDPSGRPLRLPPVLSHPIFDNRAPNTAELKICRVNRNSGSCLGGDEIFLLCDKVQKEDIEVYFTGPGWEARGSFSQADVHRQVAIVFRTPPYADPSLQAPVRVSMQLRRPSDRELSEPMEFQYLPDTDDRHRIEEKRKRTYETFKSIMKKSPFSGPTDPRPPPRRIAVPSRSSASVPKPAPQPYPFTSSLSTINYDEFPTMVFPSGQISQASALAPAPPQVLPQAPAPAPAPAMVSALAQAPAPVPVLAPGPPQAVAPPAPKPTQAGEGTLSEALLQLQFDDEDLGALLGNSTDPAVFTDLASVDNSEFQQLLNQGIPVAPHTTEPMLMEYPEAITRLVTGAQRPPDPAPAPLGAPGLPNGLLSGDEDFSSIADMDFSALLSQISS

COc1cc(/C=C2\CN(S(=O)(=O)c3ccc(NC(C)=O)cc3)C/C(=C\c3ccc(C#N)cc3)C2=O)cc(OC)c1OC
IC50 (L02): 13600 nM
Activity (SMMC-7721 [1]): Dose-dependent effect
Activity (SMMC-7721 [2]): Dose-dependent effect
IC50 (SMMC-7721 [2]; SMMC-7721, 24 h): 1730 nM
inhibition (RAW264.7 [3]): Active
Activity (QGY-7703 [4]): Dose-dependent effect
IC50 (QGY-7703 [4]; QGY-7703, 24 h): 1890 nM
inhibition (HepG2 [5]): Dose-dependent effect
IC50 [6]: 13600 nM
Activity (HepG2 [7]): Dose-dependent effect
Activity (HepG2 [8]): Dose-dependent effect
viability at 24 h, 10 µM [9]: > 80%
Activity (QGY-7703 [10]): Dose-dependent effect
inhibition (RAW264.7 [11]): Active
Activity (HepG2 [12]): Dose-dependent effect
inhibition [13]: Active
Activity (SMMC-7721 [14]): Dose-dependent effect
inhibition [15]: Active
inhibition (HepG2 [16]): Dose-dependent effect
Activity (HepG2 [17]): Dose-dependent effect
IC50 (HepG2 [17]; HepG2, 24 h): 2890 nM
Activity (HepG2 [18]): Dose-dependent effect
Activity (HepG2 [19]): Dose-dependent effect
inhibition (RAW264.7 [20]): Active
Activity (QGY-7703 [21]): Dose-dependent effect
inhibition (RAW264.7 [22]): Active
